Reference: ChEMBL document CHEMBL1909046, “DrugMatrix in vitro pharmacology data”

Tests used:
Cannabinoid receptor 1 = Cannabinoid receptor 1 (Homo sapiens, UniProt P21554); assay type: cell membranes, Chem-1, Membrane; conditions: chem-1; also: in other assays of this panel Not Active means under 50% inhibition at 10 µM
Progesterone receptor = biological target: T1, Progesterone receptor (Bos taurus, UniProt Q690N0); experiment: DRUGMATRIX: Progesterone radioligand binding (ligand: [3H] R-5020); assay type: tissue-based, Uterus; conditions: Not Active = under 50% inhibition at 10 µM
T1 sequence (Q690N0 whole entry): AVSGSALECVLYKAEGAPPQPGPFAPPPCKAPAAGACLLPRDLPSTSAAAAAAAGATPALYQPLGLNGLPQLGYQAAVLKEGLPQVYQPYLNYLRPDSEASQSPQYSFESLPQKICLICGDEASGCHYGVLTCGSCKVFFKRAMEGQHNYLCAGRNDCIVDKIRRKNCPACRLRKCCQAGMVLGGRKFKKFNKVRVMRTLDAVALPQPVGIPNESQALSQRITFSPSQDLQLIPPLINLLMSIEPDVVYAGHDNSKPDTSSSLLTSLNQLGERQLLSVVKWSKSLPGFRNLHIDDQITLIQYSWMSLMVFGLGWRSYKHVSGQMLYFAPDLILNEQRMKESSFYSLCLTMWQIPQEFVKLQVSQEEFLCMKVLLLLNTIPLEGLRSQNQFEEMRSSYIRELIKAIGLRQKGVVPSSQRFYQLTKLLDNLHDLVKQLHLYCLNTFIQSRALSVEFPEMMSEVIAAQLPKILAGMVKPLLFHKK

Endothelin-1 receptor = biological target: T2, Endothelin-1 receptor (Homo sapiens, UniProt P25101); assay type: cell membranes, Membrane; conditions: cho-k1; also: in other assays of this panel Not Active means under 50% inhibition at 10 µM
T2 sequence (P25101 whole entry): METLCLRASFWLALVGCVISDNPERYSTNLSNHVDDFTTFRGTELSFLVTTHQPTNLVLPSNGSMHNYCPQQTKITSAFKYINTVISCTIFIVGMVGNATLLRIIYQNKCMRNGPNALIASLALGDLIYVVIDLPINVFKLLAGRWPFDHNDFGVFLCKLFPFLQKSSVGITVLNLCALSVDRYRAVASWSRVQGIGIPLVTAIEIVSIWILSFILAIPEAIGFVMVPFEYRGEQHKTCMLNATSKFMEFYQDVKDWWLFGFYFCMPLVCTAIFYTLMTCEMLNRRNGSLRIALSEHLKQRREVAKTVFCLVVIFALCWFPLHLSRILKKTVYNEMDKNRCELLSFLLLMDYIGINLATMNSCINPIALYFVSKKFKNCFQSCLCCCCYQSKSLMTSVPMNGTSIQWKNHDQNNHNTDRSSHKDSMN

[1] = biological target: 5-hydroxytryptamine receptor 6 (Homo sapiens, UniProt P50406); assay type: cell membranes, HeLa, Membrane; conditions: hela; also: in other assays of this panel Not Active means under 50% inhibition at 10 µM
[2] = biological target: Tyrosine-protein kinase Lck (Homo sapiens, UniProt P06239); experiment: DRUGMATRIX: Protein Tyrosine Kinase, LCK enzyme inhibition (substrate: Poly(Glu:Tyr)); assay type: cell-based, Insect cells; conditions: insect cells; Not Active = under 50% inhibition at 10 µM
[3] = DRUGMATRIX: GABAA, Chloride Channel, TBOB radioligand binding (ligand: [3H] TBOB); assay type: cell membranes, Rattus norvegicus, Wistar, Cerebral cortex, Membrane; conditions: Not Active = under 50% inhibition at 10 µM
Substance-P receptor = Substance-P receptor (Homo sapiens, UniProt P25103); assay type: cell membranes, Membrane; conditions: cho; also: in other assays of this panel Not Active means under 50% inhibition at 10 µM
Sequence of Substance-P receptor (P25103 whole entry): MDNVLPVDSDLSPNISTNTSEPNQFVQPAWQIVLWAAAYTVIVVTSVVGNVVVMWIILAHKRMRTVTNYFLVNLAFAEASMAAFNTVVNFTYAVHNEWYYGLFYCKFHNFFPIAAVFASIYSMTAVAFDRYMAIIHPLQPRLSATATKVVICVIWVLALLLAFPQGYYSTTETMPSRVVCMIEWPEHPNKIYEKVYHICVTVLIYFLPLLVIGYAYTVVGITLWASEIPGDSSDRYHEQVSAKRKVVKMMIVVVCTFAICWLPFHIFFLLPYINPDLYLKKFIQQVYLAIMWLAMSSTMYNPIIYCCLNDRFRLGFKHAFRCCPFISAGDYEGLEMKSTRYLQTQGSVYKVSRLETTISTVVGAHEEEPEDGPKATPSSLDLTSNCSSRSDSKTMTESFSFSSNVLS

Sequence of Tyrosine-protein kinase Lck (P06239 whole entry): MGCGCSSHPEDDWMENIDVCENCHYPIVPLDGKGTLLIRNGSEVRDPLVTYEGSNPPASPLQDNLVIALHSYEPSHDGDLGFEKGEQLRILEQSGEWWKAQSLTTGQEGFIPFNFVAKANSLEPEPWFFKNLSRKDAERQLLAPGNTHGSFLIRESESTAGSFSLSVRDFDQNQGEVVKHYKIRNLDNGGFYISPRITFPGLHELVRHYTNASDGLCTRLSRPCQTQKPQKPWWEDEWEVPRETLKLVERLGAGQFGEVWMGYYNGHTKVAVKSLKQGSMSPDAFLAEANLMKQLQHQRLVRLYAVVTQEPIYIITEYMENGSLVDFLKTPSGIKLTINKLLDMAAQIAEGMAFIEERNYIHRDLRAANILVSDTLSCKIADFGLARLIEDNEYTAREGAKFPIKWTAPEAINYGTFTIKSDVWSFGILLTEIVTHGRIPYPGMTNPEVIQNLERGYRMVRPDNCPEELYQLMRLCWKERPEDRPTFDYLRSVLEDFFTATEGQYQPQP
Sequence of Cannabinoid receptor 1 (P21554 whole entry): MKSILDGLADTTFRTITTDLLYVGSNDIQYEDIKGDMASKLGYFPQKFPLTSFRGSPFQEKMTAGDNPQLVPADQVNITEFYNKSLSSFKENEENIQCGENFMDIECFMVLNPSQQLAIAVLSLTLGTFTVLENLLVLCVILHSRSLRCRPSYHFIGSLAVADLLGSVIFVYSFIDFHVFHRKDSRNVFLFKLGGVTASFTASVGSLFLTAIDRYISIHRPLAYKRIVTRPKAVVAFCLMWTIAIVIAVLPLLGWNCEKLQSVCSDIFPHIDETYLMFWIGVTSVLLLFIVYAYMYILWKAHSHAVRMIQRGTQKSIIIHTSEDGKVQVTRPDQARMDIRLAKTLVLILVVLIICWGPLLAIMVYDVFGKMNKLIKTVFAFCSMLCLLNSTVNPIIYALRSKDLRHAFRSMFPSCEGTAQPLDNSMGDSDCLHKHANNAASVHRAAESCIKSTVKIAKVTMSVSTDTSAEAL
Sequence of 5-hydroxytryptamine receptor 6 (P50406 whole entry): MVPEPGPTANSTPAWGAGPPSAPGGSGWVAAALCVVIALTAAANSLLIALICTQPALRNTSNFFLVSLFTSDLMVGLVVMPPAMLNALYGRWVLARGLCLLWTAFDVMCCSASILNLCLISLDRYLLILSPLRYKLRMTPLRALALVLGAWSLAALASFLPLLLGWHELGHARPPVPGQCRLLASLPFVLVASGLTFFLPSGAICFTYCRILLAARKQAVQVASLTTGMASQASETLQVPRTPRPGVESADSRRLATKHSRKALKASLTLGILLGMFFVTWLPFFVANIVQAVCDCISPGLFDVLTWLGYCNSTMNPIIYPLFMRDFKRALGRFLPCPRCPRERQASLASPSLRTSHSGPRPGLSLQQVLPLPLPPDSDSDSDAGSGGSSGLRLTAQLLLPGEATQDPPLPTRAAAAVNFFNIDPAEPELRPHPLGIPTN

O=C1CC2(CCCC2)CC(=O)N1CCCCN1CCN(c2ncccn2)CC1 [BUSPIRONE]
Not Active: IC50 (Cannabinoid receptor 1) | IC50 (Progesterone receptor) | IC50 (Endothelin-1 receptor) | IC50 [1] | IC50 [2] | IC50 [3] | Ki [3] | IC50 (Substance-P receptor)

C[C@@]12C(=O)OC(=O)[C@]1(C)[C@H]1CC[C@@H]2O1 [CANTHARIDIN]
Not Active: IC50 (Cannabinoid receptor 1) | IC50 (Progesterone receptor) | IC50 (Endothelin-1 receptor) | IC50 [1] | IC50 [2] | IC50 [3] | Ki [3] | IC50 (Substance-P receptor)

O=NN(CCCl)C(=O)NCCCl [CARMUSTINE]
Not Active: IC50 (Cannabinoid receptor 1) | IC50 (Progesterone receptor) | IC50 (Endothelin-1 receptor) | IC50 [1] | IC50 [2] | IC50 [3] | Ki [3] | IC50 (Substance-P receptor)

CC1=C(C(=O)O)N2C(=O)[C@@H](NC(=O)[C@H](N)c3ccccc3)[C@H]2SC1 [CEPHALEXIN ANHYDROUS]
Not Active: IC50 (Cannabinoid receptor 1) | IC50 (Progesterone receptor) | IC50 (Endothelin-1 receptor) | IC50 [1] | IC50 [2] | IC50 [3] | Ki [3] | IC50 (Substance-P receptor)

O=C(N[C@H](CO)[C@H](O)c1ccc([N+](=O)[O-])cc1)C(Cl)Cl [CHLORAMPHENICOL]
Not Active: IC50 (Cannabinoid receptor 1) | IC50 (Progesterone receptor) | IC50 (Endothelin-1 receptor) | IC50 [1] | IC50 [2] | IC50 [3] | Ki [3] | IC50 (Substance-P receptor)

ClC(Cl)Cl [CHLOROFORM]
Not Active: IC50 (Cannabinoid receptor 1) | IC50 (Progesterone receptor) | IC50 (Endothelin-1 receptor) | IC50 [1] | IC50 [2] | IC50 [3] | Ki [3] | IC50 (Substance-P receptor)

C[N+](C)(C)CCO.[Cl-] [CHOLINE CHLORIDE]
Not Active: IC50 (Cannabinoid receptor 1) | IC50 (Progesterone receptor) | IC50 (Endothelin-1 receptor) | IC50 [1] | IC50 [2] | IC50 [3] | Ki [3] | IC50 (Substance-P receptor)

CCOC(=O)C(C)(C)Oc1ccc(Cl)cc1 [CLOFIBRATE]
Not Active: IC50 (Cannabinoid receptor 1) | IC50 (Progesterone receptor) | IC50 (Endothelin-1 receptor) | IC50 [1] | IC50 [2] | IC50 [3] | Ki [3] | IC50 (Substance-P receptor)

CC(=O)OCC(=O)[C@@]1(O)CC[C@H]2[C@@H]3CCC4=CC(=O)CC[C@]4(C)[C@H]3C(=O)C[C@@]21C [CORTISONE ACETATE]
Not Active: IC50 (Cannabinoid receptor 1) | IC50 (Progesterone receptor) | IC50 (Endothelin-1 receptor) | IC50 [1] | IC50 [2] | IC50 [3] | Ki [3] | IC50 (Substance-P receptor)

O=c1ccc2ccccc2o1 [COUMARIN]
Not Active: IC50 (Cannabinoid receptor 1) | IC50 (Progesterone receptor) | IC50 (Endothelin-1 receptor) | IC50 [1] | IC50 [2] | IC50 [3] | Ki [3] | IC50 (Substance-P receptor)

C[C@@H]1C[C@@H]([C@H](O)CC2CC(=O)NC(=O)C2)C(=O)[C@@H](C)C1 [CYCLOHEXIMIDE]
Not Active: IC50 (Cannabinoid receptor 1) | IC50 (Progesterone receptor) | IC50 (Endothelin-1 receptor) | IC50 [1] | IC50 [2] | IC50 [3] | Ki [3] | IC50 (Substance-P receptor)

CN(C)/N=N/c1[nH]cnc1C(N)=O [DACARBAZINE]
Not Active: IC50 (Cannabinoid receptor 1) | IC50 (Progesterone receptor) | IC50 (Endothelin-1 receptor) | IC50 [1] | IC50 [2] | IC50 [3] | Ki [3] | IC50 (Substance-P receptor)

COc1ccc2c(c1)[C@]13CCCC[C@@H]1[C@H](C2)N(C)CC3 [DEXTROMETHORPHAN]
Not Active: IC50 (Cannabinoid receptor 1) | IC50 (Progesterone receptor) | IC50 (Endothelin-1 receptor) | IC50 [1] | IC50 [2] | IC50 [3] | Ki [3] | IC50 (Substance-P receptor)

CC(=O)Nc1c(I)c(NC(C)=O)c(I)c(C(=O)O)c1I [DIATRIZOIC ACID]
Not Active: IC50 (Cannabinoid receptor 1) | IC50 (Progesterone receptor) | IC50 (Endothelin-1 receptor) | IC50 [1] | IC50 [2] | IC50 [3] | Ki [3] | IC50 (Substance-P receptor)

COP(=O)(OC)OC=C(Cl)Cl [DICHLORVOS]
Not Active: IC50 (Cannabinoid receptor 1) | IC50 (Progesterone receptor) | IC50 (Endothelin-1 receptor) | IC50 [1] | IC50 [2] | IC50 [3] | Ki [3] | IC50 (Substance-P receptor)

O=C(O)Cc1ccccc1Nc1c(Cl)cccc1Cl [DICLOFENAC]
Not Active: IC50 (Cannabinoid receptor 1) | IC50 (Progesterone receptor) | IC50 (Endothelin-1 receptor) | IC50 [1] | IC50 [2] | IC50 [3] | Ki [3] | IC50 (Substance-P receptor)

C[C@H]1O[C@@H](O[C@H]2[C@@H](O)C[C@H](O[C@H]3[C@@H](O)C[C@H](O[C@H]4CC[C@@]5(C)[C@H](CC[C@@H]6[C@@H]5CC[C@]5(C)[C@@H](C7=CC(=O)OC7)CC[C@]65O)C4)O[C@@H]3C)O[C@@H]2C)C[C@H](O)[C@@H]1O [DIGITOXIN]
Not Active: IC50 (Cannabinoid receptor 1) | IC50 (Progesterone receptor) | IC50 (Endothelin-1 receptor) | IC50 [1] | IC50 [2] | IC50 [3] | Ki [3] | IC50 (Substance-P receptor)

CCN1CC(CCN2CCOCC2)C(c2ccccc2)(c2ccccc2)C1=O (centres undefined) [DOXAPRAM]
Not Active: IC50 (Cannabinoid receptor 1) | IC50 (Progesterone receptor) | IC50 (Endothelin-1 receptor) | IC50 [1] | IC50 [2] | IC50 [3] | Ki [3] | IC50 (Substance-P receptor)
